Here are results for 24 compounds from patent publication US9452997B2, “Piperidine and piperazine derivatives as autotaxin inhibitors” (Merck Patent GmbH, priority 2009, dated 2016).

The target in this experiment is T1, Recombinant autotaxin (Homo sapiens, UniProt Q13822).
T1 construct: made in house; host or cells: Hi5 insect cells (baculovirus)
As to the kind of experiment: Autotaxin assay (Amplex Red, LPC substrate). It counts as biochemical. To be noted: for IC50: recombinant autotaxin, LPC substrate, Amplex Red detection, values given as upper bounds. As for the experimental part:
Autotaxin activity is measured indirectly by means of Amplex Red Reagent. In this course, Amplex Red is measured as fluorogenic indicator for generated H2O2. Autotaxin converts substrate lysophosphatidylcholine (LPC) to phosphocholine and lysophosphatidylic acid (LPA). After the conversion phosphocholine is reacted with alkaline phosphatase to obtain inorganic phosphate and choline. During the next step choline is oxidized with choline oxidase to yield betaine, whereby H2O2 is generated. H2O2 reacts with Amplex Red Reagent in the presence of peroxidase (Horseradish peroxidase) in an 1:1 stochiometry and yields highly fluorescent resorufin. The generated fluorescence is measured in a reaction-dependent kinetic mode in order to enable subtraction of fluorescence signals of possible other fluorescent compounds that are not part of the reaction from total measured fluorescence.
1.5 μl of a standard solution or of the compounds of the invention are dissolved in 20 mM Hepes pH 7.2 with maximally 7.7% DMSO in individual concentrations. The resulting solution is pre-incubated together with 10 μl (16 ng) of highly purified recombinant autotaxin in a black 384-hole microtiter plate for 30 min at 22° C.
Thereafter, the reaction is started through the addition of 5 μL-a-lysophosphatidyl-choline (LPC), whereby the final concentration of LPC is 75 μM. The mixture is incubated for 90 min. at 37° C. After the incubation Amplex Red Reagent, peroxidase (Horseradish peroxidase) and choline oxidase are added. The fluorescence is immediately measured at a wavelength of 612 nm with an excitation wavelength of 485 nm in a “Tecan Ultra multimode” fluorescence reader. The activity of autotaxin is indirectly calculated via the amount of detected generated H2O2.
For IC50 analysis, ten serial 1:3 dilutions starting at 30 μM for each compound were run in duplicates.
IC50 values were calculated on normalized data. For normalization, control wells were added to each assay plate and the signal of uninhibited control wells was set to 100%, whereas the signal inhibited by 500 μM C14 LPA, (Avanti Polar Lipids, Cat#857120P) was set to 0%. Curves were fitted and IC50 values calculated by the following model using proprietory analysis software: Y=Bottom+(100−Bottom)/(1+10^((Log IC50−X)*HillSlope)) Where X is the logarithm of concentration. Y is the response; Y starts at Bottom and goes to Top with a sigmoid shape. Material
Microtiter plate: PS-Microplate, 384-hole, small volume, black Corning, Cat#3677
Protein: Recombinant autotaxin (baculoviral Hi5 expression)
Substrate: L-a-lysophosphatidyl choline (chicken egg); Avanti Polar Lipids #830071P
Standard: C14 LPA, Avanti Polar Lipids, Cat#857120P
Detection Reagent: Amplex Red Reagent; Invitrogen #A12222; dissolved in 1.923 ml of DMSO peroxidase Type VI-A (horseradish), Sigma #P6782; dissolved in 7.45 ml of test buffer, Choline Oxidase; Sigma #C5896; dissolved in 2.47 ml test buffer
Detection Reagent Mix: 1:100 dilution of Amplex Red Regent in test buffer
Test buffer: 200 mM Tris-HCl, Merck, Cat #1.08219, pH 7.9; 0.1% BSA, lipid free, Roche Cat#775835

Take `O=C(Nc1ccc2[nH]nnc2c1)C1CC(=O)N(C2CCN(C(=O)OCC3CCCO3)CC2)C1` (stereo not drawn) [Compound 27, 4-[4-(1H-Benzotriazol-5-ylcarbamoyl)-2-oxo-pyrrolidin-1-yl]-piperidine-1-carboxylic acid tetrahydro-furan-2-ylmethyl ester]: the “% CTRL (1E−05)” value (% of control at 1E−05 (compound concentration), uninhibited control = 100%) was 83%.

The IC50 is the point on the concentration scale where inhibition reaches its midpoint. Consider `O=C(NCCc1ccncc1)C1CC(=O)N(C2CCN(C(=O)OCc3cc(Cl)cc(Cl)c3)CC2)C1` (stereo not drawn) [Compound 28, 4-[2-Oxo-4-(2-pyridin-4-yl-ethylcarbamoyl)-pyrrolidin-1-yl]-piperidine-1-carboxylic acid 3,5-dichloro-benzyl ester], for which the IC50 was below 10000 nM.

Take `O=C(OCc1cc(Cl)cc(Cl)c1)N1CCC2(CC1)CCN(C(=O)c1ccc3[nH]nnc3c1)CC2` [Compound 29, 9-(1H-Benzotriazole-5-carbonyl)-3,9-diaza-spiro[5.5]undecane-3-carboxylic acid 3,5-dichloro-benzyl ester]: the IC50 is below 30000 nM.

With `O=C(NCCc1cccnc1)C1CC(=O)N(C2CCN(C(=O)OCc3cc(Cl)cc(Cl)c3)CC2)C1` (stereo not drawn) [Compound 30, 4-[2-Oxo-4-(2-pyridin-3-yl-ethylcarbamoyl)-pyrrolidin-1-yl]-piperidine-1-carboxylic acid 3,5-dichloro-benzyl ester], the concentration for half-maximal inhibition (IC50) was below 30000 nM.

Turning to `O=C(Nc1cc(Cl)cc(Cl)c1)N1CCN(C2CCN(C(=O)c3ccc4[nH]nnc4c3)CC2)CC1` [Compound 31, 4-[1-(1H-Benzotriazole-5-carbonyl)-piperidin-4-yl]-piperazine-1-carboxylic acid (3,5-dichloro-phenyl)-amide], the IC50 was below 30000 nM.

With `O=C(CCc1ccc(C(F)(F)F)cc1)N1CCN(C2CCN(C(=O)c3ccc4[nH]nnc4c3)CC2)CC1` [Compound 32, 1-{4-[1-(1H-Benzotriazole-5-carbonyl)-piperidin-4-yl]-piperazin-1-yl}-3-(4-trifluoromethyl-phenyl)-propan-1-one], the IC50 is below 1000 nM.

With `O=C(CCc1ccc(C(F)(F)F)cc1)N1CCN(C2CCN(C(=O)c3ccc4[nH]c(=O)oc4c3)CC2)CC1` [Compound 33, 6-(4-{4-[3-(4-Trifluoromethyl-phenyl)-propionyl]-piperazin-1-yl}-piperidine-1-carbonyl)-3H-benzooxazol-2-one], the IC50 was below 1000 nM.

With `O=C(OCc1ccc(C(F)(F)F)cc1)N1CCN(C2CCN(C(=O)c3ccc4[nH]nnc4c3)CC2)CC1` [Compound 34, 4-[1-(1H-Benzotriazole-5-carbonyl)-piperidin-4-yl]-piperazine-1-carboxylic acid 4-trifluoromethyl-benzyl ester], the IC50 was below 1000 nM.

As for `O=C(OCc1cc(C(F)(F)F)cc(C(F)(F)F)c1)N1CCN(C2CCN(C(=O)c3ccc4[nH]nnc4c3)CC2)CC1` [Compound 35, 4-[1-(1H-Benzotriazole-5-carbonyl)-piperidin-4-yl]-piperazine-1-carboxylic acid 3,5-bis-trifluoromethyl-benzyl ester], the IC50 is below 1000 nM.

With `O=C(OCc1ccc(Cl)cc1F)N1CCN(C2CCN(C(=O)c3ccc4[nH]nnc4c3)CC2)CC1` [Compound 36, 4-[1-(1H-Benzotriazole-5-carbonyl)-piperidin-4-yl]-piperazine-1-carboxylic acid 4-chloro-2-fluoro-benzyl ester], the half-inhibitory concentration (IC50) is below 1000 nM.

For `O=C(OCc1ccc(SC(F)(F)F)cc1)N1CCN(C2CCN(C(=O)c3ccc4[nH]nnc4c3)CC2)CC1` [Compound 37, 4-[1-(1H-Benzotriazole-5-carbonyl)-piperidin-4-yl]-piperazine-1-carboxylic acid 4-trifluoromethylsulfanyl-benzyl ester], the IC50 was below 1000 nM.

In the case of `COc1ccc(Cl)cc1COC(=O)N1CCN(C2CCN(C(=O)c3ccc4[nH]nnc4c3)CC2)CC1` [Compound 38, 4-[1-(1H-Benzotriazole-5-carbonyl)-piperidin-4-yl]-piperazine-1-carboxylic acid 5-chloro-2-methoxy-benzyl ester], the IC50 is below 1000 nM.

In the case of `O=C(OCc1ccccc1Cl)N1CCN(C2CCN(C(=O)c3ccc4[nH]nnc4c3)CC2)CC1` [Compound 39, 4-[1-(1H-Benzotriazole-5-carbonyl)-piperidin-4-yl]-piperazine-1-carboxylic acid 2-chloro-benzyl ester], the IC50 was below 10000 nM.

As to `Cc1ccc(COC(=O)N2CCN(C3CCN(C(=O)c4ccc5[nH]nnc5c4)CC3)CC2)cc1` [Compound 40, 4-[1-(1H-Benzotriazole-5-carbonyl)-piperidin-4-yl]-piperazine-1-carboxylic acid 4-methyl-benzyl ester], the IC50 is below 10000 nM.

For the compound `O=C(OCc1cccc(Cl)c1)N1CCN(C2CCN(C(=O)c3ccc4[nH]nnc4c3)CC2)CC1` [Compound 41, 4-[1-(1H-Benzotriazole-5-carbonyl)-piperidin-4-yl]-piperazine-1-carboxylic acid 3-chloro-benzyl ester], the IC50 is below 1000 nM.

Consider `O=C(OCc1ccc(Cl)cc1)N1CCN(C2CCN(C(=O)c3ccc4[nH]nnc4c3)CC2)CC1` [Compound 42, 4-[1-(1H-Benzotriazole-5-carbonyl)-piperidin-4-yl]-piperazine-1-carboxylic acid 4-chloro-benzyl ester], for which the IC50 is below 1000 nM.

For `CC(C)c1ccc(COC(=O)N2CCN(C3CCN(C(=O)c4ccc5[nH]nnc5c4)CC3)CC2)cc1` [Compound 43, 4-[1-(1H-Benzotriazole-5-carbonyl)-piperidin-4-yl]-piperazine-1-carboxylic acid 4-isopropyl-benzyl ester], the IC50 was below 1000 nM.

Consider `O=C(OCc1ccc(Cl)c(Cl)c1)N1CCN(C2CCN(C(=O)c3ccc4[nH]nnc4c3)CC2)CC1` [Compound 45, 4-[1-(1H-Benzotriazole-5-carbonyl)-piperidin-4-yl]-piperazine-1-carboxylic acid 3,4-dichloro-benzyl ester], for which the IC50 was below 1000 nM.

As for `O=C(OCc1ccc(Cl)cc1Cl)N1CCN(C2CCN(C(=O)c3ccc4[nH]nnc4c3)CC2)CC1` [Compound 46, 4-[1-(1H-Benzotriazole-5-carbonyl)-piperidin-4-yl]-piperazine-1-carboxylic acid 2,4-dichloro-benzyl ester], the IC50 is below 1000 nM.

With `O=C(OCc1ccc(OC(F)(F)F)cc1)N1CCN(C2CCN(C(=O)c3ccc4[nH]nnc4c3)CC2)CC1` [Compound 47, 4-[1-(1H-Benzotriazole-5-carbonyl)-piperidin-4-yl]-piperazine-1-carboxylic acid 4-trifluoromethoxy-benzyl ester], the IC50 was below 1000 nM.

Regarding `Cc1nc(-c2ccc(C(F)(F)F)cc2)sc1C(=O)N1CCN(C2CCN(C(=O)c3ccc4[nH]nnc4c3)CC2)CC1` [Compound 48, (1H-Benzotriazol-5-yl)-(4-{4-[4-methyl-2-(4-trifluoromethyl-phenyl)-thiazole-5-carbonyl]-piperazin-1-yl}-piperidin-1-yl)-methanone], the IC50 was below 10000 nM.

In the case of `O=C(CCc1ccc(C(F)(F)F)cc1)N1CCC(N2CCN(C(=O)c3ccc4[nH]c(=O)oc4c3)CC2)CC1` [Compound 49, 6-(4-{1-[3-(4-Trifluoromethyl-phenyl)-propionyl]-piperidin-4-yl}-piperazine-1-carbonyl)-3H-benzooxazol-2-one], the IC50 was below 1000 nM.

In the case of `O=C(CCc1ccc(C(F)(F)F)cc1)N1CCC(N2CCN(C(=O)c3ccc4[nH]nnc4c3)CC2)CC1` [Compound 50, 1-{4-[4-(1H-Benzotriazole-5-carbonyl)-piperazin-1-yl]-piperidin-1-yl}-3-(4-trifluoromethyl-phenyl)-propan-1-one], the IC50 is below 10000 nM.

As to `O=C(OCc1cc(Cl)cc(Cl)c1)N1CCC(NC2CCN(C(=O)c3ccc4[nH]nnc4c3)CC2)C1` (stereo not drawn) [Compound 51, 3-[1-(1H-Benzotriazole-5-carbonyl)-piperidin-4-ylamino]-pyrrolidine-1-carboxylic acid 3,5-dichloro-benzyl ester], the IC50 was below 1000 nM.
